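Five concentrations, 48 hours, 96-well plates. The concentration for full growth arrest is given as TGI.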
What was measured:
Experiment in all cases: growth of human tumour cells (NCI), 48 h
BT-549 breast = tested on: BT-549 breast
HOP-62 NSCLC = tested on: HOP-62 NSCLC
IGROV1 ovarian = tested on: IGROV1 ovarian
KM12 colon = tested on: KM12 colon
OVCAR-3 ovarian = tested on: OVCAR-3 ovarian
OVCAR-4 ovarian = tested on: OVCAR-4 ovarian
RPMI-8226 leukemia = tested on: RPMI-8226 leukemia
SK-OV-3 ovarian = tested on: SK-OV-3 ovarian
SNB-75 CNS = tested on: SNB-75 CNS
U251 CNS = tested on: U251 CNS

SMILES	TGI (BT-549 breast)	TGI (HOP-62 NSCLC)	TGI (IGROV1 ovarian)	TGI (KM12 colon)	TGI (OVCAR-3 ovarian)	TGI (OVCAR-4 ovarian)	TGI (RPMI-8226 leukemia)	TGI (SK-OV-3 ovarian)	TGI (SNB-75 CNS)	TGI (U251 CNS)
NC(=O)NCCCC(NC(=O)OCCCCCn1ccc(=O)[nH]c1=O)C(=O)O (stereo not given)	> 100 µM	> 100 µM	> 100 µM	> 100 µM	> 100 µM	> 100 µM	> 100 µM	> 100 µM	> 100 µM	> 100 µM
CCOc1cc(C2SCC(=O)N2c2nc3cc4sc(N5C(=O)CSC5c5ccc(O)c(OCC)c5)nc4cc3s2)ccc1O (stereo not given)	> 85.4 µM	> 100 µM	> 100 µM	> 100 µM	> 100 µM	> 100 µM	> 100 µM	> 100 µM	> 100 µM	> 100 µM
CCOC(=O)C(C)c1nc2cc(N3CCN(C)CC3)c(F)cc2[nH]c1=O (stereo not given)	> 100 µM	> 100 µM	> 100 µM	> 100 µM	> 100 µM	> 100 µM	> 100 µM	> 100 µM	> 100 µM	> 100 µM
Nc1c(S(=O)(=O)O)cc(Nc2cccc(S(=O)(=O)/C=C/S(=O)(=O)O)c2)c2c1C(=O)c1ccccc1C2=O	> 100 µM	> 100 µM	> 100 µM	> 100 µM	> 100 µM	> 100 µM	> 100 µM	> 100 µM	> 100 µM	> 100 µM
CC(C)(C)OC(=O)NCC(=O)N1CCCN(C(=O)CNC(=O)OC(C)(C)C)CC1	> 100 µM	> 100 µM	> 100 µM	> 100 µM	> 100 µM	> 100 µM	> 100 µM	> 100 µM	> 100 µM	> 100 µM
O=C1C[C@H](c2ccccc2)C2(C(=O)c3ccccc3C2=O)[C@H](c2ccccc2)C1	> 100 µM	96 µM	> 100 µM	> 100 µM	> 100 µM	> 100 µM	> 100 µM	> 100 µM	> 100 µM	> 100 µM
Cc1n(CC(=O)c2ccccc2)nc2sc(N)n[n+]12	> 100 µM	> 100 µM	> 100 µM	> 100 µM	> 100 µM	> 100 µM	> 100 µM	74.7 µM	> 100 µM	> 100 µM
CN(C)CCOC1(CC2CCCCC2)CCC(C(C)(C)C)CC1 (stereo not given)	20.4 µM	11.2 µM	22.2 µM	14.4 µM	18.4 µM	19.8 µM	4.9 µM	24.7 µM	19.1 µM	13.2 µM
O=C(C#Cc1cn(C2CC(O)C(CO)O2)c(=O)[nH]c1=O)c1ccccc1 (stereo not given)	> 100 µM	> 100 µM	> 100 µM	> 100 µM	37.7 µM	> 100 µM	> 100 µM	> 100 µM	> 100 µM	> 100 µM
CCC(C)C1(O)OC2CC3(C)OC(=CC3=O)/C(C)=C\C3OC(=O)C1(C)C32 (stereo not given)	12.8 µM	> 100 µM	53.5 µM	24.7 µM	42.6 µM	> 100 µM	> 100 µM	> 100 µM	> 100 µM	> 100 µM
O=C(/C=C/c1ccccc1O)/C=C/c1ccccc1O	3.28 µM	5.76 µM	3.31 µM	3.3 µM	1.26 µM	7.7 µM	0.76 µM	4.34 µM	19.5 µM	2.89 µM
C[C@H](CCC1=NCCN1)[C@H]1CC[C@H]2[C@@H]3CC[C@@H]4C[C@H](O)CC[C@]4(C)[C@H]3C[C@H](O)[C@]12C	33.1 µM	28.9 µM	21.9 µM	24.1 µM	24.5 µM	33.6 µM	30 µM	31.9 µM	13.5 µM	23.7 µM
Nc1nc2cc(CNc3ccc(C(=O)NC(CCC(=O)O)C(=O)O)cc3)ccc2nc1-c1ccccc1 (stereo not given)	> 10 µM	> 10 µM	> 10 µM	> 10 µM	> 10 µM	> 10 µM	> 10 µM	> 10 µM	> 10 µM	> 10 µM

Reference: PubChem BioAssay (NCI)
